From US12577232B2, “N-heterocycle substituted tryptamine derivatives and methods of using” (ENVERIC B[…] INC., priority 2024, dated 2026)

How the values were obtained:
5-HT2A receptor [1] = molecular target: T1, 5-HT2A receptor (Homo sapiens, UniProt P28223); assay: Functional cell-based 5-HT2A assay, agonism mode (CHO-K1/5-HT2A, Fluo-8 calcium flux); details: CHO-K1/5-HT2A cells
T1 construct: purchased PerkinElmer ES-313-M400UA
Method: Herein, functional, cell-based assays were conducted to determine (1) agonist potency and efficacy of drugs at the 5-HT2A receptor (agonist mode), and (2) antagonist potency at the 5-HT2A receptor (antagonist mode).
All cells were grown and maintained as a monolayer in Ham's F12 nutrient mix supplemented with 10% fetal bovine serum (FBS) and 400 μg/mL geneticin (G418) all from ThermoFisher Scientific and used according to the manufacturer's instructions. Cells were cultured and incubated at 37° C. in a humidified oxygen atmosphere with 5% CO2. To evaluate the activation of 5-HT2A signal transduction, cells were first seeded in tissue culture-treated, black-walled, clear-bottom 96-well plates (Thermo Scientific) at a density of 40,000 cells/well in 100 pl Ham's F12 nutrient mix supplemented with 2% FBS. Cells were cultured for 24 h in a humidified incubator at 37° C. and 5% CO2. Cells were then loaded with Fluo-8 calcium indicator dye for 1 h at 37° C. and an additional 30 min at room temperature as per the manufacturer's protocol. […] Kinetic increases in intracellular calcium levels were measured immediately after addition of test compounds every 6.4 s for a total of 3 min using the FlexStation 3 multimode microplate reader and SoftMax Pro 7.1 analysis software (Molecular Devices, moleculardevices.com). […] EC50 values were calculated from the normalized data from GraphPad PRISM software.

[2] = system: stressed C57BL/6-Elite mice; assay: Mouse sucrose preference (SP) assay to assess antidepressant potential; assay type: in vivo; details: i.p., psilocin 3 mg/kg, compound (XV) 10 mg/kg; one day after administration
Method: Reduced intake of pleasurable substances, e.g., of sucrose water, is a validated behavioral measure of anhedonic/depressive-like state in rodents (Moreau et al., 1992, Eur. Neurpsychopharmocol. 2:43-49; Liu et al., 2018, Nature Protocols 13:1686-1698). […] In the SP assay, cohorts of mice are pre-stressed, leading to a depressed state. The ability of drugs to rescue this state are evaluated.
All animal protocols were approved by the University of Calgary Animal Care and Use Committee. C57BL/6-Elite mixed sex mice were obtained from Charles River Laboratories (Toronto, Canada) at 8-9 weeks old. Mice were maintained on a 12:12 h light/dark schedule (lights on at 07:00 hours) with ad libitum access to food and water and group-housed until 2 days prior to the start of the mild chronic stress paradigm, then mice were single-housed. […]
Mice were introduced to 1% sucrose solution in their drinking water for 24 hrs for 2 days prior to initial sucrose preference testing to reduce impact of novelty. […] The consumption in water, sucrose solution, and total intake of liquids was measured by weighing each bottle before and after the 24-hr experiment. The preference for sucrose was calculated as a percentage of the consumed sucrose solution from the total intake of both water and sucrose solutions. […]

[3] = system: stressed C57BL/6-Elite mice; assay: Mouse marble burying (MB) assay to assess anxiolytic potential; assay type: in vivo; details: i.p., psilocin 3 mg/kg, compound (XV) 10 mg/kg; vs Vehicle+Stress
Method: Marble burying behavior is used to measure the level of anxiety in a rodent when it encounters unfamiliar objects (Deacon, 2006, Nature Protocols 1:122-124). This assay is routinely applied to the study of chronically stressed mice, where drug candidates are evaluated for an ability to diminish stress-induced, anxiety-like behaviours (e.g., Wang et al., ACS Chem. Neurosci. 14:977-987). Positive results in this assay may be interpreted as an indication of therapeutic (anxiolytic) potential in the treatment of various psychiatric disorders. Herein, we applied the marble burying model to investigate whether selected drugs could alleviate anxiety behaviour in stressed mice.
All animal protocols were approved by the University of Calgary Animal Care and Use Committee. C57BL/6-Elite mixed sex mice were obtained from Charles River Laboratories (Toronto, Canada) at 8-9 weeks old. […]
On the testing days, 10 glass marbles (approx. 15 mm in diameter) were evenly spaced on 5 cm of wood-chip bedding (lightly tamped down to make a flat and even surface). […] The number of marbles buried to ⅔rds their depth was measured. Fully buried marbles were counted as 1 and partially (at least ⅔rds) buried marbles were counted as 0.5. […]

5-HT2A receptor [4] = molecular target: T1, 5-HT2A receptor; assay: Functional cell-based 5-HT2A assay, antagonism mode (CHO-K1/5-HT2A, 100 nM serotonin, calcium flux); details: CHO-K1/5-HT2A cells, with 100 nM serotonin
From the text: A variety of 5-HT2A receptor engagement modes have been correlated with positive outcomes in the treatment of neurological disorders. While agonism is associated with a host of favourable effects, antagonizing the 5-HT2A receptor is also an attractive pharmacological approach. For example, antagonism is known to alleviate both dyskinesisa and psychosis in Parkinson's Disorder and holds promise for other psychiatric diseases (Mestre et al., 2013, Expert Opin. Investig. Drugs 22:411-421). Similarly positive outcomes are noted for inverse agonists (Cummings et al., 2014, Lancet, 383:533-540; Roberts, 2006, Curr. Opin. Invest. Drugs 7:653-660). […]
Stimulation of 5-HT2A coupled to the Gq family proteins leads to activation of the phospholipase C (PLC) pathway, ultimately resulting in the accumulation of cytosolic calcium (Cussac et al., Europ. J. Pharmacol., 2008, 594 (1-3), 32-38). […] Kinetic increases in intracellular calcium levels were measured immediately after addition of ligands every 6.4 s for a total of 3 min using the FlexStation 3 multimode microplate reader and SoftMax Pro 7.1 analysis software (Molecular Devices, moleculardevices.com). […] IC50 values were calculated from the normalized data from GraphPad PRISM software. […]

T1 sequence (P28223 whole entry): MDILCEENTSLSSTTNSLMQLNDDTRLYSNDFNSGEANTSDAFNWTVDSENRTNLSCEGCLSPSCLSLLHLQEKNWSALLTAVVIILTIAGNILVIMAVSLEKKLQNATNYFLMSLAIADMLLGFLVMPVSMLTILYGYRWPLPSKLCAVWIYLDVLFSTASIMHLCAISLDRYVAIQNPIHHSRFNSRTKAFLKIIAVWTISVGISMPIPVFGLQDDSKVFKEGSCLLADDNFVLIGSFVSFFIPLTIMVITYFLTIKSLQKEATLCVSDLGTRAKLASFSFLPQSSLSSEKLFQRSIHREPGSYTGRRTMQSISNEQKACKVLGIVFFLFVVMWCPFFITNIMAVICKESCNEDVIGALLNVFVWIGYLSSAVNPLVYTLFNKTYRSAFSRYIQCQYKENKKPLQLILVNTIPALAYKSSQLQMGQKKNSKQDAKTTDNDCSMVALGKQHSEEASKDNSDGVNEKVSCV

CN(C)CCc1c[nH]c2cc(F)cc(N3CCOCC3)c12 [Compound (XV)]
engagement at the 5-HT2A receptor, agonist mode (5-HT2A receptor [1]): agonism
sucrose preference behaviour in stressed mice vs no drug control [2]: significant preference for sucrose
anxiety-linked (marble burying) behavior in stressed mice [3]: alleviated
engagement at the 5-HT2A receptor, antagonist mode (5-HT2A receptor [4]): antagonism
